Results on two substances are retold here after patent US20040229284A1, “Multiplex analysis of proteins” (The Regents of the University of California, priority 2003, published 2004).

Holding throughout (type): cell-based
For one assay, the system named is EGFR. Description: Microsphere (Luminex) detection of tyrosine-phosphorylated EGFR in lysates of activated A431 cells. The conditions noted are these: for detection of tyrosine phosphorylated EGFR in lysates of activated cells: anti-EGFR coated microspheres, 4G10-biotin, streptavidin-R-phycoerythrin. The method, then:
A431 cells were grown to 80-90% confluency in T75 flasks. Cells were washed once with fresh media (37° C.). For treatment, sodium pervanadate was prepared as described above and diluted into DMEM to 1 mM final concentration. Two ml of 1 mM sodium pervanadate containing media, prewarmed to 37° C., was added per T75 flask and the cell monolayer was covered with it. Cells were incubated at 37° C. for 5 min. Activated cells were lysed and processed as described below.
For pathway specific activation of A431 cells, which overexpress the epidermal growth factor receptor (EGFR), the cells were treated with epidermal growth factor (EGF). Cells were grown to about 80-90% confluency in a T75 flask. The optimal concentration of EGF for activation of the EGFR pathway in A431 cells was determined to be 100 μM. EGF was diluted in DMEM containing 10% serum. Two ml of the diluted EGF (100 μM) was layered on top of the cell monolayer. Cells were incubated at 37° C. for 15 min for activation. Activated cells were lysed and processed as described below.
A431 cells were lysed by adding 1 ml of 1× lysis buffer (1% NP-40 and protease inhibitor cocktail in PBS), pre-chilled on ice, per T75 flask. Cells were removed by scraping with a cell scraper. Lysate was vortexed immediately after addition of lysis buffer and incubated on ice for 15 min. While incubating on ice, it was mixed by vortexing every 5 min. […]
After incubation with the lysate, liquid was drained from the bottom of plate, under vacuum, on a suction apparatus (Millipore Corporation) designed to fit these plates. […] Washed microspheres were resuspended in 100 μl of wash buffer per well and analyzed in the Luminex-100™ instrument, according to the manufacturer's instructions.
Later experiments focused on analyzing multiple proteins in another pathway simultaneously, as described below. (It will be evident that multiple proteins in the EGFR pathway or any other pathways or combinations thereof could similarly be analyzed simultaneously.)

The subject of assay [1] is LAT. The assay can be described thus: Immunoprecipitation and Western analysis with biotinylated 4G10, Jurkat lysates: LAT. The conditions noted are these: Jurkat cell lysates, treated vs untreated; FIG. 3. The method, then:
(§1) To confirm that microspheres coated with antibodies to Lck, Zap70 and LAT captured predominantly specific proteins in cell lysates, immunoprecipitation was performed with these antibodies. Cell lysates (1×10^8 cells in 1 ml) were incubated with 2.5 μg of each antibody for 1 hr. The immune complexes were captured with Protein G conjugated sepharose (Sigma Chemicals, St. Louis, Mo.) and resolved by standard polyacrylamide gel electrophoresis (PAGE). Resolved proteins were transferred to PVDF membrane (BiORad, Hercules, Calif.) and probed with biotinylated 4G10 (1:2000 dilution in 5% non-fat powdered milk in PBS). Phosphorylated bands were finally detected by ABC Detection Reagent (Vector Laboratories, Burlingame, Calif.) and Chemiluminescent Substrate (Pierce). […] These phosphorylated proteins predominated in their respective immunoprecipitates.

The test system of assay [2] is Lck. The assay can be described thus: Immunoprecipitation and Western analysis with biotinylated 4G10, Jurkat lysates: Lck. The conditions noted are these: Jurkat cell lysates, treated vs untreated; FIG. 3. On the procedure:
as §1

For assay [3], the system named is Lck. Description: Five-plex microsphere (Luminex) assay of tyrosine phosphorylation in activated Jurkat T-cells: Lck. The conditions noted are these: lysate from pervanadate treated Jurkat cells, 37° C., 5 min; FIG. 2. The method, then: (§2) Jurkat cells were resuspended to a density of 1×10^8 cells/ml in PBS. Cells were pre-warmed to 37° C. for 15 min. To each milliliter of cell suspension, 40 μl of sodium pervanadate was added. Cells were mixed and immediately incubated at 37° C. for 5 min. Activated cells were lysed, and cell lysates were processed as described below.
(§3) For pathway specific activation, Jurkat cells were treated with anti-CD3-receptor monoclonal antibody (UCHT1) (Becton Dickenson, San Diego, Calif.). Cells were resuspended in PBS at a density of 1×10^8/ml and prewarmed to 37° C. Anti-CD3 antibody was added to a final concentration of 5 μg/ml. Cells were mixed and incubated at 37° C. for various times ranging from 5 sec to 10 min. Optimal phosphorylation of most tyrosine kinases and their substrates in the T-cell receptor pathway occurred in 5 min.
(§4) Jurkat cells were lysed by adding a volume of 2× lysis buffer (2% NP-40 and protease inhibitor cocktail (both from Roche Diagnostics, Mannheim, Germany) in PBS), pre-chilled on ice, equal to the volume of the resuspended cells. […]
(§5) After incubation with the lysate, liquid was drained from the bottom of plate, under vacuum, on a suction apparatus (Millipore Corporation) designed to fit these plates. […] Washed microspheres were resuspended in 100 μl of wash buffer per well and analyzed in the Luminex-100™ instrument, according to the manufacturer's instructions. […]

Assay [4] relates to LAT. Description: Five-plex microsphere (Luminex) assay of tyrosine phosphorylation in activated Jurkat T-cells: LAT. The conditions noted are these: lysate from pervanadate treated Jurkat cells, 37° C., 5 min; FIG. 2. On the procedure:
as §2, §3, §4, §5

Assay [5] concerns Zap70. Description: Immunoprecipitation and Western analysis with biotinylated 4G10, Jurkat lysates: Zap70. The conditions noted are these: Jurkat cell lysates, treated vs untreated; FIG. 3. The method, then: as §1
The test system of assay [6] is Zap70. Description: Five-plex microsphere (Luminex) assay of tyrosine phosphorylation in activated Jurkat T-cells: Zap70. The conditions noted are these: lysate from pervanadate treated Jurkat cells, 37° C., 5 min; FIG. 2. On the procedure: as §2, §3, §4, §5

With epidermal growth factor [EGF], in the assay on EGFR (37° C., 15 min), the “optimal concentration of EGF for activation of the EGFR pathway” value was 100 µM. In the assay on EGFR, the “detection of tyrosine phosphorylated EGFR in lysates of activated cells” value is on record as “could be detected”.
Regarding sodium pervanadate, in the assay with LAT [1], the “phosphorylated band of LAT in immunoprecipitate” value is listed as “detected only in lysates from cells treated with sodium pervanadate”. Further, in the assay with EGFR, the “detection of tyrosine phosphorylated EGFR in lysates of activated cells” value is reported as “could be detected”. Moreover, the “phosphorylated band of Lck in immunoprecipitate” value in the assay on Lck [2] is listed as “detected only in lysates from cells treated with sodium pervanadate”. Also, the “fluorescent signal from streptavidin-phycoerythrin, anti-Lck coated microspheres” value in the assay with Lck [3] is listed as “strong fluorescent signal”. Moreover, in the assay with LAT [4], the “fluorescent signal from streptavidin-phycoerythrin, anti-LAT coated microspheres” value is listed as “strong fluorescent signal”. For the same substance, the “phosphorylated band of Zap70 in immunoprecipitate” value in the assay on Zap70 [5] is “detected only in lysates from cells treated with sodium pervanadate”. Also, the “fluorescent signal from streptavidin-phycoerythrin, anti-Zap70 coated microspheres” value in the assay with Zap70 [6] is “strong fluorescent signal”.
